In patent publication EP0727207A1, “The pharmacological use of certain cystine derivatives” (priority 1990, dated 1991):

Test system: Balb/c mice
Test: delayed type hypersensitivity (DTH) reaction in the mouse ear, OXA-sensitized mice
Assay type: in vivo
Settings: for Diff. Tt24-Tt0: ear thickness 24 hours after challenge; for Diff. Tt24-Tt0 / Diff Tt48-Tt0 / Diff Tt24-Tt0: mean; for Diff Tt48-Tt0: ear thickness 48 hours after challenge; for Diff Tt24-Tt0: L-forms
Description: The property of the compounds diNAC, diBUT, diVAL, diCAP, diMeNAC, diEtNAC and diMeVAL to stimulate immune responses is illustrated by their efficacy in a model of the delayed type hypersensitivity (DTH) reaction in the mouse.
Both male and female Balb/c mice obtained from Bomholtsgaard (Denmark) and Charlie Rivers (England), were used at the weight of 18-20 gram. 4-ethoxymethylene-2-phenyloxazolone (OXA) was purchased from BDH (England) and served as an antigen in this test.
The mice were sensitized, Day 0, by epicutaneous application of 150 µl absolute ethanol-acetone (3:1) solution containing 3% OXA on the shaved thorax and abdomen. Treatment with the L-form of diNAC, diMeNAC, diEtNAC, diMeVAL, or vehicle (phosphate buffer, pH 7.0) was initiated by oral feeding immediately after sensitization and continued once daily to Day 6. […] after the sensitization both ears of all mice were challenged on both sides by topical application of 20 µl 1% OXA dissolved in peanut oil. Ear thickness was measured prior to and 24 or 48 hours after challenge using an Oditest spring calliper. Challenges and measurements were performed under light pentobarbital anasthesia. The intensity of the DTH reactions was expressed according to the formula: Tt24/48-Tt0 µm units, where t0, t24 and t48 represent the ear thickness before and 24 or 48 hours after challenge, respectively, in an individual […]. The results were expressed as the mean +/-S.E.M. The level of significance between means of the groups was obtained by Student's two-tailed t-test. Tables 1 and 2 show the results from 24 and 48 hours measurements, respectively, from a representative experiment with the L-form of diNAC. […]

[1] = 0.03 µmol/kg oral once daily Day 0 to Day 6
[2] = 0.30 µmol/kg oral once daily Day 0 to Day 6
[3] = 3.0 µmol/kg oral once daily Day 0 to Day 6
[4] = 30.0 µmol/kg oral once daily Day 0 to Day 6
[5] = Table 3, 24 h after challenge, 0.03 µmol/kg oral
[6] = Table 3, 24 h after challenge, 3.0 µmol/kg oral
[7] = Table 3, 48 h section, 0.03 µmol/kg oral
[8] = Table 3, 48 h section, 3.0 µmol/kg oral

SMILES: CC(=O)N[C@@H](CSSC[C@H](NC(C)=O)C(=O)O)C(=O)O [L-diNAC, N,N'-diacetyl-L-cystine]
- Diff. Tt24-Tt0 [1]: 13.75 µm units
- Diff. Tt24-Tt0 [2]: 15.70 µm units
- Diff. Tt24-Tt0 [3]: 18.30 µm units
- Diff. Tt24-Tt0 [4]: 20.67 µm units
- Diff Tt48-Tt0 [1]: 11.65 µm units
- Diff Tt48-Tt0 [2]: 12.65 µm units
- Diff Tt48-Tt0 [3]: 14.95 µm units
- Diff Tt48-Tt0 [4]: 13.63 µm units
- ear thickness after oral administration (result in words, 24 and 48 hours after challenge, oral): significant increase of the ear thickness in a concentration-response manner

SMILES: CCCC(=O)N[C@@H](CSSC[C@H](NC(=O)CCC)C(=O)O)C(=O)O [diBUT, N,N' - dibutyrylcystine]
- immunostimulating effect in the DTH reaction in the mouse ear (result in words): highly potent and efficient immunostimulating agents

SMILES: CCCCCCCC(=O)N[C@@H](CSSC[C@H](NC(=O)CCCCCCC)C(=O)O)C(=O)O [diCAP, N,N'-dicaprylylcystine]
- immunostimulating effect in the DTH reaction in the mouse ear (result in words): highly potent and efficient immunostimulating agents

SMILES: CCOC(=O)[C@H](CSSC[C@H](NC(C)=O)C(=O)OCC)NC(C)=O [diEtNAC, N,N'-diacetylcystine diethyl ester]
- Diff Tt24-Tt0 [5]: 11.75 µm units
- Diff Tt24-Tt0 [6]: 13.05 µm units
- Diff Tt24-Tt0 [7]: 13.15 µm units
- Diff Tt24-Tt0 [8]: 13.20 µm units
- immunostimulating effect in the DTH reaction in the mouse ear (result in words): highly potent and efficient immunostimulating agents

SMILES: COC(=O)[C@H](CSSC[C@H](NC(C)=O)C(=O)OC)NC(C)=O [diMeNAC, N,N'-diacetylcystine dimethyl ester]
- Diff Tt24-Tt0 [5]: 18.00 µm units
- Diff Tt24-Tt0 [6]: 12.55 µm units
- Diff Tt24-Tt0 [7]: 12.85 µm units
- Diff Tt24-Tt0 [8]: 13.35 µm units
- immunostimulating effect in the DTH reaction in the mouse ear (result in words): highly potent and efficient immunostimulating agents

SMILES: COC(=O)[C@H](CSSC[C@H](NC(=O)CC(C)C)C(=O)OC)NC(=O)CC(C)C [diMeVAL, N,N'-diisovalerylcystine dimethyl ester]
- immunostimulating effect in the DTH reaction in the mouse ear (result in words): highly potent and efficient immunostimulating agents

SMILES: CC(=O)N[C@@H](CSSC[C@H](NC(C)=O)C(=O)O)C(=O)O [diNAC, N,N'-diacetylcystine]
- immunostimulating effect in the DTH reaction in the mouse ear (result in words): highly potent and efficient immunostimulating agents

SMILES: CC(C)CC(=O)N[C@@H](CSSC[C@H](NC(=O)CC(C)C)C(=O)O)C(=O)O [diVAL, N,N'-diisovalerylcystine]
- immunostimulating effect in the DTH reaction in the mouse ear (result in words): highly potent and efficient immunostimulating agents
